Each block holds one compound with its values, some of them ahead of it. Active and inactive are the calls of the source.
Assays:
[1] = Luminescence-based cell-based high throughput dose response assay to identify activators of the DAF-12 from the parasite S. stercoralis (ssDAF-12).; assay type: functional
[2] = biological target: T1, Oxysterols receptor LXR-beta (Homo sapiens, UniProt P55055); test: LXR agonists, Gal4 luciferase reporter, dose response, counter-screen for ssDAF-12 agonist project, cell-based, luminescence, HEK293, S. stercoralis campaign (AID 720737); assay type: functional; settings: read-out: IC50 (the source's name)
T1 sequence (P55055 whole entry): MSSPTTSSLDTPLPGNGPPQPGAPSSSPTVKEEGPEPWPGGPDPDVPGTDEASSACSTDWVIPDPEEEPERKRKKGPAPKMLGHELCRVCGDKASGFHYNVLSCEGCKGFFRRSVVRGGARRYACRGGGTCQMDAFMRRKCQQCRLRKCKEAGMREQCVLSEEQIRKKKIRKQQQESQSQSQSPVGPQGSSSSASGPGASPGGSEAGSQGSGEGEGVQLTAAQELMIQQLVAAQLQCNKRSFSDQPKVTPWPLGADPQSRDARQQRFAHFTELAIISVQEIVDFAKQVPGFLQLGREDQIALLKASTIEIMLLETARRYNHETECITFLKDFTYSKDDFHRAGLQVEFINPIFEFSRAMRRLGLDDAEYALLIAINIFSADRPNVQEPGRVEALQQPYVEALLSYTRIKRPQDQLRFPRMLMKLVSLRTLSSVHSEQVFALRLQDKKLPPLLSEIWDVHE

[3] = biological target: NAD-dependent protein deacylase sirtuin-5, mitochondrial (Homo sapiens, UniProt Q9NXA8); test: sirtuin-5 deacylation blockers, concentration series – biochemical, fluorescence imaging, cherry-pick, set 5, dose response (AID 720591);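 also: desuccinylation of succinyl peptide AMC substrate read as fluorescence after trypsin release; potency of inhibitors that lower fluorescence and may act on trypsin instead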
Sequence of NAD-dependent protein deacylase sirtuin-5, mitochondrial (Q9NXA8 whole entry): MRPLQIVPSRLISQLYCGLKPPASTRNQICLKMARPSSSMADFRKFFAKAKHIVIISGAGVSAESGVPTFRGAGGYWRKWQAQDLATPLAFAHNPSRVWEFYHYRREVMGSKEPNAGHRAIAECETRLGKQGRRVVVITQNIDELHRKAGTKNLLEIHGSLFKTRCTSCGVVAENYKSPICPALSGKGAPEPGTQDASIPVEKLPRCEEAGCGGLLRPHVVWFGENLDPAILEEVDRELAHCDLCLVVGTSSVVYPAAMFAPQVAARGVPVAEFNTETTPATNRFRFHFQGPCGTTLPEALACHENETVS

[4] = cytotoxicity toward Colo320 cells – cell-based, CellTiter-Glo luminescence, IC50, dose response (AID 1117334); assay type: functional; settings: COLO 320
[5] = CellTiter-Glo luminescence survival assay, SW480 colon tumor line, concentration-response curve, half-maximal inhibitory concentration (AID 1117338); assay type: functional
[6] = HCT116 cell viability decrease, GSK3B pretreatment – CellTiter-Glo, IC50, dose response (AID 1117339); assay type: functional; settings: HCT-116
[7] = Reduced DLD-1 viability, concentration-response, CellTiter-Glo luminescence (AID 1117352); assay type: functional
[8] = cytotoxicity toward HT-29 cells – cell-based, CellTiter-Glo luminescence, IC50, dose response (AID 1117330); assay type: functional
[9] = cytotoxicity toward HCT116 cells – cell-based, CellTiter-Glo luminescence, IC50, dose response (AID 1117332); assay type: functional; settings: HCT-116
[10] = SNU-C1 cell viability reduction, dose response, CellTiter-Glo luminescence (AID 1117323); assay type: functional, cell-based
[11] = RKO cell viability reduction, dose response, CellTiter-Glo luminescence (AID 1117322); assay type: functional
[12] = viability loss in HEK293 cells – cell-based, plate reader, cherry-picked samples, cytotoxicity control, dose response (AID 743446); assay type: functional
[13] = blockers of bursicon-stimulated LGR2 cAMP reporter – cell-based, HEK293, CRE-luciferase reporter, cherry pick, set 2, dose response (AID 743343); assay type: functional;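 also: transfected cells were stimulated with diluted bursicon conditioned medium after compound addition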
[14] = general mammalian cell viability loss – activator set, cherry-pick, cytotoxicity control for miR-122 modulator project, dose response (AID 720690); assay type: functional, cell-based;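 also: HEK293T human cells scored for general mammalian cytotoxicity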
[15] = A549 cell cytotoxicity, dose response, cytotoxicity control, plate reader, cherry-pick, antagonist series (AID 743412); assay type: functional, cell-based
[16] = blockade of melanocortin 4 receptor signaling – cell-based, plate reader, cherry pick, counter-screen for LGR2 antagonist project, dose response (AID 743444); assay type: functional;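 also: transfected HEK 293 cells stimulated with alpha-MSH peptide; potency of inhibitors of the alpha-MSH evoked signal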
[17] = activation of miR-122 Renilla sensor silencing – cell-based, Huh7 psiCHECK-miR122, Renilla luciferase, cherry-picked, dose response (AID 651956); assay type: functional;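 also: huh7 hepatoma cells stably carrying a psiCHECK-2 miR-122 sensor plasmid; renilla luciferase signal reporting endogenous miR-122 activity after 48 h compound exposure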
[18] = toxicity toward HepG2 liver cells – cell-based, plate reader, cherry-pick, antagonist series, cytotoxicity control, dose response (AID 743416); assay type: functional
[19] = viability loss in human Jurkat cells – cell-based, luminescence, cytotoxicity control for P. falciparum gametocyte viability project, dose response (AID 1117277); assay type: functional;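 also: potency reflects loss of cellular ATP meaning fewer viable cells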
[20] = viability inhibitors of stage V gametocytes – luminescence, dose response (AID 1117278); assay type: functional, cell-based;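 also: gametocytes exposed to compound for 24 hours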
[21] = inhibition of ADAM10 peptide cleavage – biochemical, FRET peptide substrate, recombinant human ADAM10, selectivity assay for ADAM17 exosite inhibitor project, dose response (AID 743259);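 also: ADAM10 enzyme cleaving a FRET peptide substrate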
[22] = biological target: Disintegrin and metalloproteinase domain-containing protein 17 (Homo sapiens, UniProt P78536); test: exosite inhibitors of ADAM17, dose response, biochemical (AID 743260)
Sequence of Disintegrin and metalloproteinase domain-containing protein 17 (P78536 whole entry, the tested form may be a part): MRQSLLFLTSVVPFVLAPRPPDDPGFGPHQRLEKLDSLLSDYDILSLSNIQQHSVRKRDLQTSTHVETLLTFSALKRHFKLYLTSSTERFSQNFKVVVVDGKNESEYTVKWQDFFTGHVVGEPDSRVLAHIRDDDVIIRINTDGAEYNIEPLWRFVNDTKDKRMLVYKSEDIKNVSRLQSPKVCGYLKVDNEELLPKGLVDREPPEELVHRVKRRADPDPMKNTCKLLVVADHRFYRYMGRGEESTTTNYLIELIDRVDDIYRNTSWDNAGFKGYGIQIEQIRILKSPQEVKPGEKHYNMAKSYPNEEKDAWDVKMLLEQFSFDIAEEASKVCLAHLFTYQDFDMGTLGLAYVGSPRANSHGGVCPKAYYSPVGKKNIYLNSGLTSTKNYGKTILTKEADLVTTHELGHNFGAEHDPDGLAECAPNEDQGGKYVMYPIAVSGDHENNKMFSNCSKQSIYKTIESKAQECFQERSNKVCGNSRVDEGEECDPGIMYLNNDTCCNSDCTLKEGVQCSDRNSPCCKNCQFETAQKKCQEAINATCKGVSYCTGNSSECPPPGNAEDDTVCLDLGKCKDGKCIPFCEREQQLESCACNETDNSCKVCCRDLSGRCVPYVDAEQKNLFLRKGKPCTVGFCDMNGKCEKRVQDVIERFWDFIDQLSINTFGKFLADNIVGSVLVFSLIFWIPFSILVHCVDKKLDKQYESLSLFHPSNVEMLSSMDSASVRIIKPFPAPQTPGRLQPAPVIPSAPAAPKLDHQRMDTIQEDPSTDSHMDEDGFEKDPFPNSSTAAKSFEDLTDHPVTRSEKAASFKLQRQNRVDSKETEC

[23] = HIV-1 Vif–A3G interaction blockers – biochemical, TR-FRET, GST-Vif 1-94, biotin-A3G peptide, dose response retest, primary screen (AID 1117319); assay type: functional;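 also: TR-FRET signal of purified GST-Vif binding a biotinylated A3G peptide; inhibitors lower the FRET signal by blocking Vif and A3G binding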
[24] = biological target: T2, Low molecular weight phosphotyrosine protein phosphatase (Homo sapiens, UniProt P24666); assay type: functional; settings: read-out: IC50_Mean;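 also: Dose-response confirmation assay measuring inhibition of LMPTP enzyme activity by fluorescence intensity read-out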
T2 sequence (P24666 whole entry): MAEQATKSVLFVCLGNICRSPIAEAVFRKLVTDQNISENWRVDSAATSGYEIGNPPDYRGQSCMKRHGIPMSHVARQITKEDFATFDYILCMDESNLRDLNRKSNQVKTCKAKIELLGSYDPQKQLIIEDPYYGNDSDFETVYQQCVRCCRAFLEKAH

[25] = biological target: T3, Carboxy-terminal domain RNA polymerase II polypeptide A small phosphatase 1 (Homo sapiens, UniProt Q9GZU7); test: CTDSP1 inhibitors, concentration-response, biochemical, absorbance readout, ultra-high-throughput screen actives (AID 540297); assay type: functional
T3 sequence (Q9GZU7 whole entry): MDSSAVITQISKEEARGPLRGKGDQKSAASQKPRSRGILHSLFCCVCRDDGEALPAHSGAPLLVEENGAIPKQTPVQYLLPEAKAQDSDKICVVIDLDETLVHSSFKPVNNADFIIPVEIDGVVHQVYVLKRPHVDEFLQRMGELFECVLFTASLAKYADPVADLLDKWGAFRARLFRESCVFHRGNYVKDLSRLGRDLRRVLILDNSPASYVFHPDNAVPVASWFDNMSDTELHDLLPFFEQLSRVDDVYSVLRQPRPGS

[26] = biological target: Endoplasmic reticulum aminopeptidase 1 (Homo sapiens, UniProt Q9NZ08); test: inhibition of human ERAP1 enzyme activity – biochemical, cherry-pick, set 2, plate reader, dose response (AID 743314)
Sequence of Endoplasmic reticulum aminopeptidase 1 (Q9NZ08 whole entry): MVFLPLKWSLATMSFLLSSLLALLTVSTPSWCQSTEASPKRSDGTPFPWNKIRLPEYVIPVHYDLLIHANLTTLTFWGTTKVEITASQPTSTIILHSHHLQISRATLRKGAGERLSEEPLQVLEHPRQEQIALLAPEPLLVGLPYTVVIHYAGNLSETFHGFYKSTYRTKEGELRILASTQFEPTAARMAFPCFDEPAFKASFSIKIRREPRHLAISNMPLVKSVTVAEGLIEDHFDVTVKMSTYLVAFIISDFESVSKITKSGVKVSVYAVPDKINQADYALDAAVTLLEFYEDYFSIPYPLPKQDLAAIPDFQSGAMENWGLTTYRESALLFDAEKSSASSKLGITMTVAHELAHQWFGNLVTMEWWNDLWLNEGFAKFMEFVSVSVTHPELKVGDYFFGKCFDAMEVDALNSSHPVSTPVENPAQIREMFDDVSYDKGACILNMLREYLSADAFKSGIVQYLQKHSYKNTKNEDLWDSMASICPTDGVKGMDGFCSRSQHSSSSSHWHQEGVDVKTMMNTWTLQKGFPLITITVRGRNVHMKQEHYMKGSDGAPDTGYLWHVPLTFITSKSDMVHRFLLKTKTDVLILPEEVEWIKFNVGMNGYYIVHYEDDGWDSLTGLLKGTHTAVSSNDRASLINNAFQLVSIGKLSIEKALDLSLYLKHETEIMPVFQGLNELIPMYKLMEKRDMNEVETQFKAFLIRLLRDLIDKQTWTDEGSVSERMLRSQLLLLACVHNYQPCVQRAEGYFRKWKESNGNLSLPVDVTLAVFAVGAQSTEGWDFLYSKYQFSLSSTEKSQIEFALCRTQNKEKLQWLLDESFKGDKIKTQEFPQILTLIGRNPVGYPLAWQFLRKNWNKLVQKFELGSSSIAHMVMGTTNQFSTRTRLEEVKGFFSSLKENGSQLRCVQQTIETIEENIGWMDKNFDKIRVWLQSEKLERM

[27] = biological target: T4, Probable nicotinate-nucleotide adenylyltransferase (Staphylococcus aureus (strain N315), UniProt P65502); assay type: functional, Staphylococcus aureus subsp. aureus N315; settings: read-out: IC50_Mean;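 as to IC50 Mean: confirmatory dose-response retesting of NadD inhibitor hits first found in an ultra-high-throughput screen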
Albumin = Albumin (Bos taurus, UniProt P02769); test: Counterscreen for inhibitors of T-cell receptor (TCR)-CD3 interaction: Fluorescence-based biochemical high throughput dose response assay to identify inhibitors of T-cell receptor (TCR)-CD3 interaction using a TAMRA-labeled BSA probe.; assay type: functional
Sequence of Albumin (P02769 whole entry): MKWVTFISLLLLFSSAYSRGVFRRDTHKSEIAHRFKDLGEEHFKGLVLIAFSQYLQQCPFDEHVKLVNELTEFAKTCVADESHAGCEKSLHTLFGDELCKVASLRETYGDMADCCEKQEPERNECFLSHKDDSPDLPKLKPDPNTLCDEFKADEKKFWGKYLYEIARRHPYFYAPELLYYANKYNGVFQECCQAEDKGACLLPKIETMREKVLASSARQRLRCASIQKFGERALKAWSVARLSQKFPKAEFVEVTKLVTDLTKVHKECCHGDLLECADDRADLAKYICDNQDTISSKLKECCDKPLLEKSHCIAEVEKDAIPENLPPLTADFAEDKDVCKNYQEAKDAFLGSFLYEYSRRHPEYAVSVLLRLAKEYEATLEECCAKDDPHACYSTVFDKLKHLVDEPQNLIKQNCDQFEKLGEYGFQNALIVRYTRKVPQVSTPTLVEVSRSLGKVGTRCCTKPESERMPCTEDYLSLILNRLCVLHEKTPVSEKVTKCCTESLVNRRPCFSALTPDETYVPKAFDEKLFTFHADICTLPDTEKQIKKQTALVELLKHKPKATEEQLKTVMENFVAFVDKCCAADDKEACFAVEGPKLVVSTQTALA

[28] = biological target: T4, Probable nicotinate-nucleotide adenylyltransferase; assay type: functional, Staphylococcus aureus subsp. aureus N315
Vero = test: mammalian cell viability reduction – secondary assay, cytotoxicity control for West Nile virus antiviral project, dose response (AID 1650); assay type: functional; settings: Chlorocebus sabaeus
HeLa = test: viability loss in HeLa cells – cell-based, ATP luminescence, cherry-pick samples, cytotoxicity control, dose response (AID 687004); assay type: functional; settings: Homo sapiens

AC50 [3]: > 30 µM (inactive)
Structure (SMILES): O=C(NCCN1CCCC(O)C1)c1cc(COc2ccc(F)cc2Cl)on1 (stereo not given)

IC50 [22]: > 69.5 µM (inactive)
Structure (SMILES): N#Cc1cccc(NC(=O)c2cc(C3CCCCN3S(=O)(=O)c3ccccc3)on2)c1 (stereo not given)
IC50 [21]: > 69.5 µM (inactive)

IC50 [24]: 49.5 µM (inactive)
AC50 [3]: > 30 µM (inactive)
IC50 [25]: 3.21 µM (active)
Structure (SMILES): CCSc1nnc(NC(=O)CSc2sc3c(O)cc(=O)[nH]c3c2C#N)s1

AC50 [26]: 3.11 µM (active)
Structure (SMILES): Cc1c(CC(=O)N2CCN(C(=O)C3COc4ccccc4O3)CC2)c(=O)oc2cc(O)c(Cl)cc12 (stereo not given)

IC50 [27]: 18 µM (active)
IC50 [25]: 3.2 µM (active)
IC50 (Albumin): > 94.1 µM (inactive)
IC50 [28]: 9.77 µM (active)
Structure (SMILES): CN(CCC#N)C(=O)COC(=O)c1c2c(nc3ccccc13)/C(=C\c1ccco1)CC2

AC50 [26]: 7.13 µM (active)
Structure (SMILES): O=C(NCC1CC1)[C@H]1[C@H](CO)[C@H]2Cn3c(ccc(/C=C/c4ccccc4)c3=O)[C@@H]1N2C(=O)C1CC1

Further lines, the compound ahead of its results:

Structure (SMILES): CNc1cncc(-c2ccc(OC)c(OC)c2)n1
IC50 [1]: > 67.6 µM (inactive)
EC50 [2]: > 67.6 µM (inactive)

Structure (SMILES): CC(C)=CCCC(C)=CCCC(C)=CCCC=C(C)CCC=C(C)CCC=C(C)C
IC50 [4]: > 20 µM (inactive)
IC50 [5]: > 20 µM (inactive)
IC50 [6]: > 20 µM (inactive)
IC50 [7]: > 20 µM (inactive)
IC50 [8]: > 20 µM (inactive)
IC50 [9]: > 20 µM (inactive)
IC50 [10]: > 20 µM (inactive)
IC50 [11]: > 20 µM (inactive)

Structure (SMILES): C[C@H](CO)N1C[C@H](C)[C@H](CN(C)C(=O)Nc2cccc3ccccc23)Oc2ncc(C#Cc3ccc(C(F)(F)F)cc3)cc2C1=O
AC50 [12]: 41.4 µM (active)
AC50 [13]: 41.1 µM (active)
AC50 [14]: 25.9 µM (active)
AC50 [15]: 21.3 µM (active)
AC50 [16]: 21.7 µM (active)
AC50 [17]: 13.9 µM (active)
AC50 [18]: 23.1 µM (active)

Structure (SMILES): CCCn1c(SCC(=O)c2cc(OC)ccc2OC)nnc1-c1ccco1
IC50 [19]: > 83.3 µM (inactive)
IC50 [20]: > 109 µM (inactive)

Structure (SMILES): CCN(CC)CCN/C=C1\C(=O)CNC1=O
IC50 [23]: > 100 µM (active)

Structure (SMILES): Cc1ccccc1NC(=O)c1cc(C(=O)c2cc(Cl)ccc2O)cn(-c2ccccc2C)c1=O
CC50 (Vero): 64.8 µM (active)

Structure (SMILES): CN1C(=O)c2cc(NC(=O)Nc3ccc(Cl)cc3)ccc2OC[C@H]2O[C@@H](CC(=O)NCCN3CCCCC3)CC[C@@H]21
AC50 (HeLa): 22.7 µM (active)

Structure (SMILES): C[C@H]1CN([C@@H](C)CO)C(=O)c2cc(NC(=O)Nc3ccc(F)cc3)ccc2O[C@@H]1CN(C)S(C)(=O)=O
AC50 (HeLa): 1.16 µM (active)

Reference: ChEMBL document CHEMBL1201862, “PubChem BioAssay data set” (2004)
